What follows are molecules tested on Cisd2 promoter with firefly luciferase reporter (assay: Cisd2-luciferase reporter assay in HEK293-CISD2 cells). Details: Homo sapiens, 24 hours incubation, luciferase luminescence.
Assay type: cell-based
Description: A typical in vitro screening method includes the following steps: (i) obtaining an initial level of Cisd2 in a batch of human embryonic kidney cells 293 (HEK-293 cells) that express Cisd2, (ii) treating the batch of HEK-293 cells with a compound of this invention, and (iii) analyzing the level of Cisd2 after the treatment, thereby determining the potency of the compound as a Cisd2 activator.
Compounds 1-109 were tested for increasing the level of Cisd2 in human embryonic kidney cells 293 (HEK293), a transfected cell line expressing Cisd2, using the Cisd2-luciferase reporter assay as follows.
The transfected HEK293 cells stably expressed Cisd2 promoter with firefly luciferase reporter (HEK293-CISD2). They were kept in Dulbecco's modified Eagle's medium (DMEM) (Gibco, New York, NY, USA). Culture medium was supplemented with 10% heat-inactivated fetal bovine serum (FBS), 2 mM L-Glutamine, 1 mM sodium pyruvate, 0.1% MEM Non-Essential Amino Acids, 1 ug/ml puromycin and 1% penicillin/streptomycin (HyClone, Logan, UT, USA). The cells were maintained at 37° C. in an incubator (Thermo Fisher Scientific, New York, NY, USA) with an atmosphere of 5% CO2. The stably transfected cells were seeded in 384-well plates at a density of 3×10^3 cells/well. After incubation with tested compounds at 37° C. for 24 hours, ONE-Glo™ Luciferase Assay System (Promega, Madison, WI, USA) was added at room temperature for 5 minutes to detect any luciferase activity. Luminescence intensity was registered using plate reader Victor^2V (PerkinElmer, Boston, MA, USA).
EC50 values in this table are presented in three classes, i.e., A: <1 μM, B: 1 μM-5 μM, and C: 5 μM-10 μM.

Row | Compound | EC50 [nM]
1 | O=C(CS(=O)(=O)c1cc[n+]([O-])cc1)N1Cc2ccccc2C1 [Compound 44, 1-(1,3-dihydro-2H-isoindol-2-yl)-2-[(1-oxidopyridin-4-yl)sulfonyl]ethanone] | 5000 to 10000
2 | O=C(CS(=O)(=O)c1ccccc1)N1Cc2ccccc2C1 [Compound 45, 1-(1,3-dihydro-2H-isoindol-2-yl)-2-(phenylsulfonyl)-ethanone] | < 1000
3 | O=C(CS(=O)(=O)c1cccs1)N1Cc2ccccc2C1 [Compound 46, 1-(1,3-dihydro-2H-isoindol-2-yl)-2-(thiophen-2-ylsulfonyl)ethanone] | < 1000
4 | O=C(CS(=O)(=O)Cc1ccccc1)N1Cc2ccccc2C1 [Compound 47, 2-(benzylsulfonyl)-1-(1,3-dihydro-2H-isoindol-2-yl)ethanone] | 5000 to 10000
5 | O=C(CCS(=O)(=O)c1nccs1)N1Cc2ccccc2C1 [Compound 48, 1-(1,3-dihydro-2H-isoindol-2-yl)-3-(1,3-thiazol-2-ylsulfonyl)propan-1-one] | < 1000
6 | O=C(CCS(=O)(=O)c1ccccn1)N1Cc2ccc(F)cc2C1 [Compound 49, 1-(5-fluoro-1,3-dihydro-2H-isoindol-2-yl)-3-(pyridin-2-ylsulfonyl)propan-1-one] | 1000 to 5000
7 | O=C(N1Cc2ccc(F)cc2C1)C(F)(F)S(=O)(=O)c1ccccn1 [Compound 50, 2,2-difluoro-1-(5-fluoro-1,3-dihydro-2H-isoindol-2-yl)-2-(pyridin-2-ylsulfonyl)ethanone] | < 1000
8 | O=C1N[C@H]2[C@H](CS[C@H]2CCCCC(=O)Oc2ccc3c(c2)CN(C(=O)CS(=O)(=O)c2nccs2)C3)N1 [Compound 51, 2-[(1,3-thiazol-2-ylsulfonyl)acetyl]-2,3-dihydro-1H-isoindol-5-yl 5-[(3aS,4S,6aR)-2-oxohexahydro-1H-thieno[3,4-d]imidazol-4-yl]pentanoate] | < 1000
9 | O=C(N1Cc2ccccc2C1)C(F)(F)Sc1nccs1 [Compound 52, 1-(1,3-dihydro-2H-isoindol-2-yl)-2,2-difluoro-2-(1,3-thiazol-2-ylsulfanyl)ethanone] | < 1000
10 | O=C(N1Cc2ccccc2C1)C(F)(F)S(=O)(=O)c1nccs1 [Compound 53, 1-(1,3-dihydro-2H-isoindol-2-yl)-2,2-difluoro-2-(1,3-thiazol-2-ylsulfonyl)ethanone] | < 1000
11 | O=C(N1Cc2ccccc2C1)C(F)(F)[S+]([O-])c1nccs1 (stereo not drawn) [Compound 54, 1-(1,3-dihydro-2H-isoindol-2-yl)-2,2-difluoro-2-(1,3-thiazol-2-ylsulfinyl)ethanone] | < 1000
12 | O=C(CSc1ccccn1)N1Cc2ccc(O)cc2C1 [Compound 55, 1-(5-hydroxy-1,3-dihydro-2H-isoindol-2-yl)-2-(pyridin-2-ylsulfanyl)ethanone] | 5000 to 10000
13 | O=C(CSc1cccc(F)c1)N1Cc2ccccc2C1 [Compound 56, 1-(1,3-dihydro-2H-isoindol-2-yl)-2-[(3-fluorophenyl)sulfanyl]ethanone] | < 1000
14 | O=C(CSc1ccc(Cl)s1)N1Cc2ccccc2C1 [Compound 57, 2-[(5-chlorothiophen-2-yl)sulfanyl]-1-(1,3-dihydro-2H-isoindol-2-yl)ethanone] | < 1000
15 | O=C(CSc1cc(F)ccc1F)N1Cc2ccccc2C1 [Compound 58, 2-[(2,5-difluorophenyl)sulfanyl]-1-(1,3-dihydro-2H-isoindol-2-yl)ethanone] | < 1000
16 | O=C(CSc1ccccc1F)N1Cc2ccccc2C1 [Compound 59, 1-(1,3-dihydro-2H-isoindol-2-yl)-2-[(2-fluorophenyl)sulfanyl]ethanone] | < 1000
17 | O=C(CSc1ccc(F)cc1F)N1Cc2ccccc2C1 [Compound 60, 2-[(2,4-difluorophenyl)sulfanyl]-1-(1,3-dihydro-2H-isoindol-2-yl)ethanone] | < 1000
18 | Nc1ccc(SCC(=O)N2Cc3ccccc3C2)cc1 [Compound 61, 2-[(4-aminophenyl)sulfanyl]-1-(1,3-dihydro-2H-isoindol-2-yl)ethanone] | < 1000
19 | Cc1ccc(SCC(=O)N2Cc3ccccc3C2)cc1 [Compound 62, 1-(1,3-dihydro-2H-isoindol-2-yl)-2-[(4-methylphenyl)sulfanyl]ethanone] | 5000 to 10000
20 | O=C(CSc1ccccc1F)N1Cc2ccc(F)cc2C1 [Compound 63, 1-(5-fluoro-1,3-dihydro-2H-isoindol-2-yl)-2-[(2-fluorophenyl)sulfanyl]ethanone] | < 1000
21 | O=C(CSc1ccccc1)N1Cc2ccc(F)cc2C1 [Compound 64, 1-(5-fluoro-1,3-dihydro-2H-isoindol-2-yl)-2-(phenylsulfanyl)ethanone] | < 1000

Row | Compound | EC50 [nM]
22 | O=C(CSc1ccccc1F)N1Cc2cc(F)c(F)cc2C1 [Compound 65, 1-(5,6-difluoro-1,3-dihydro-2H-isoindol-2-yl)-2-[(2-fluorophenyl)sulfanyl]ethanone] | < 1000
23 | O=C(CSc1ccccc1)N1Cc2cccc(F)c2C1 [Compound 66, 1-(4-fluoro-1,3-dihydro-2H-isoindol-2-yl)-2-(phenylsulfanyl)ethanone] | < 1000
24 | O=C(CSc1ccccc1Cl)N1Cc2ccccc2C1 [Compound 67, 2-[(2-chlorophenyl)sulfanyl]-1-(1,3-dihydro-2H-isoindol-2-yl)ethanone] | < 1000
25 | O=C(CSc1cccc(Cl)c1Cl)N1Cc2ccccc2C1 [Compound 68, 2-[(2,3-dichlorophenyl)sulfanyl]-1-(1,3-dihydro-2H-isoindol-2-yl)ethanone] | 1000 to 5000
26 | Cc1nc(SCC(=O)N2Cc3ccccc3C2)sc1C [Compound 69, 1-(1,3-dihydro-2H-isoindol-2-yl)-2-[(4,5-dimethyl-1,3-thiazol-2-yl)sulfanyl]ethanone] | 1000 to 5000
27 | Cn1ccc(SCC(=O)N2Cc3ccccc3C2)n1 [Compound 70, 1-(1,3-dihydro-2H-isoindol-2-yl)-2-[(1-methyl-1H-pyrazol-3-yl)sulfanyl]ethanone] | 1000 to 5000
28 | O=C(CSc1ncccc1F)N1Cc2ccccc2C1 [Compound 71, 1-(1,3-dihydro-2H-isoindol-2-yl)-2-[(3-fluoropyridin-2-yl)sulfanyl]ethanone] | < 1000
29 | O=C(CSc1ncco1)N1Cc2ccccc2C1 [Compound 72, 1-(1,3-dihydro-2H-isoindol-2-yl)-2-(1,3-oxazol-2-ylsulfanyl)ethanone] | < 1000
30 | O=C(CSc1cccc(F)n1)N1Cc2ccccc2C1 [Compound 73, 1-(1,3-dihydro-2H-isoindol-2-yl)-2-[(6-fluoropyridin-2-yl)sulfanyl]ethanone] | 1000 to 5000
31 | N#Cc1ccc(SCC(=O)N2Cc3ccccc3C2)s1 [Compound 74, 5-{[2-(1,3-dihydro-2H-isoindol-2-yl)-2-oxoethyl]sulfanyl}thiophene-2-carbonitrile] | < 1000
32 | O=C(CSc1ccc(CO)s1)N1Cc2ccccc2C1 [Compound 75, 1-(1,3-dihydro-2H-isoindol-2-yl)-2-{[5-(hydroxymethyl)thiophen-2-yl]sulfanyl}ethanone] | < 1000
33 | O=C(CSc1ccc(C(F)F)s1)N1Cc2ccccc2C1 [Compound 76, 2-{[5-(difluoromethyl)thiophen-2-yl]sulfanyl}-1-(1,3-dihydro-2H-isoindol-2-yl)ethanone] | 1000 to 5000
34 | O=C(CSc1ccccn1)N1Cc2ccc(N3CCOCC3)cc2C1 [Compound 77, 1-[5-(morpholin-4-yl)-1,3-dihydro-2H-isoindol-2-yl]-2-(pyridin-2-ylsulfanyl)ethanone] | 5000 to 10000
35 | O=C(CCSc1ccccc1Cl)N1Cc2ccccc2C1 [Compound 78, 3-[(2-chlorophenyl)sulfanyl]-1-(1,3-dihydro-2H-isoindol-2-yl)propan-1-one] | < 1000
36 | O=C(CCSc1ccccc1)N1Cc2ccccc2C1 [Compound 79, 1-(1,3-dihydro-2H-isoindol-2-yl)-3-(phenylsulfanyl)propan-1-one] | < 1000
37 | O=C(C[S+]([O-])c1ccc(Cl)s1)N1Cc2ccccc2C1 (stereo not drawn) [Compound 80, 2-[(5-chlorothiophen-2-yl)sulfinyl]-1-(1,3-dihydro-2H-isoindol-2-yl)ethanone] | 1000 to 5000
38 | O=C(C[S+]([O-])c1ccccc1Cl)N1Cc2ccccc2C1 (stereo not drawn) [Compound 81, 2-[(2-chlorophenyl)sulfinyl]-1-(1,3-dihydro-2H-isoindol-2-yl)ethanone] | < 1000
39 | O=C(C[S+]([O-])c1cccc(F)n1)N1Cc2ccccc2C1 (stereo not drawn) [Compound 82, 1-(1,3-dihydro-2H-isoindol-2-yl)-2-[(6-fluoropyridin-2-yl)sulfinyl]ethanone] | < 1000
40 | O=C(CC[S+]([O-])c1ccccc1Cl)N1Cc2ccccc2C1 (stereo not drawn) [Compound 83, 3-[(2-chlorophenyl)sulfinyl]-1-(1,3-dihydro-2H-isoindol-2-yl)propan-1-one] | < 1000
41 | O=C(CC[S+]([O-])c1ccccc1)N1Cc2ccccc2C1 (stereo not drawn) [Compound 84, 1-(1,3-dihydro-2H-isoindol-2-yl)-3-(phenylsulfinyl)propan-1-one] | < 1000
42 | O=C(CS(=O)(=O)c1ccccn1)N1Cc2ccc(O)cc2C1 [Compound 85, 1-(5-hydroxy-1,3-dihydro-2H-isoindol-2-yl)-2-(pyridin-2-ylsulfonyl)ethanone] | < 1000

Reference: patent US11827629B2, “CDGSH iron sulfur domain 2 activators and use thereof” (National Health Research Institutes, priority 2021, dated 2023)
